Patent US10821115B2, “Compounds that inhibit Mcl-1 protein” (priority 2017, dated 2020)

Assays:
[1] = target: recombinant human Mcl-1 (residues 171-327) / Bim interaction (Homo sapiens (Human), UniProt Q07820); assay: biochemical; type: binding; conditions: TR-FRET, Mcl-1(171-327) / biotin-Bim (51-76); read-out: Mcl-1 HTRF IC50
[2] = tested on: human multiple myeloma cell line, OPM-2; assay: Cell viability assay (OPM-2 10 FBS), CellTiter-Glo; type: cell-based; conditions: Homo sapiens, OPM-2, 16 h, read-out: OPM-2 10% FBS IC50 IP, OPM-2 cells, 10% FBS, 16 h, CellTiter-Glo
In short: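 OPM-2 cells at 3000 cells/well in RPMI 1640 with 10% FBS were exposed to serially diluted compounds for 16 h at 37 °C, 5% CO2.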

Sequence of recombinant human Mcl-1 (residues 171-327) / Bim interaction (Q07820 171-327): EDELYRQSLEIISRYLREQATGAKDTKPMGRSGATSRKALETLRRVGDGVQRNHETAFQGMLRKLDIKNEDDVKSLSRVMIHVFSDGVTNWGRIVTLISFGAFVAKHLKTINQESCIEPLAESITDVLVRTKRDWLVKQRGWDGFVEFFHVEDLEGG

SMILES | IC50 [1] [nM] | IC50 [2] [nM]
CO[C@@]1(Cc2ncc(C)o2)/C=C/C[C@H](C)[C@@H](C)S(=O)(=O)NC(=O)c2ccc3c(c2)N(C[C@@H]2CC[C@H]21)C[C@@]1(CCCc2cc(Cl)ccc21)CO3 [Example 100529, (1S,3′R,6′R,7′S,8′E,11′S,12′R)-6-chloro-7′-methoxy-11′,12′-dimethyl-7′-((5-methyl-1,3-oxazol-2-yl)methyl)-3,4-dihydro-2H,15′H-spiro[naphthalene-1,22′-[20]oxa[13]thia[1,14]diazatetracyclo [14.7.2.0~3,6~.0~19,24~]pentacosa[8,16,18,24]tetraen]-15′-one 13′,13′-dioxide] | 0.287 | 245
Cc1ccnc(C[C@@]2(O)/C=C/C[C@H](C)[C@@H](C)S(=O)(=O)NC(=O)c3ccc4c(c3)N(C[C@@H]3CC[C@H]32)C[C@@]2(CCCc3cc(Cl)ccc32)CO4)c1 [Example 100532, (1S,3′R,6′R,7′R,8′E,11′S,12′R)-6-chloro-7′-hydroxy-11′,12′-dimethyl-7′-((4-methyl-2-pyridinyl)methyl)-3,4-dihydro-2H,15′H-spiro[naphthalene-1,22′-[20]oxa[13]thia[1,14]diazatetracyclo [14.7.2.0~3,6~.0~19,24~]pentacosa[8,16,18,24]tetraen]-15′-one 13′,13′-dioxide] | 0.053 | 8640
Cc1ccnc(C[C@]2(O)/C=C/C[C@H](C)[C@@H](C)S(=O)(=O)NC(=O)c3ccc4c(c3)N(C[C@@H]3CC[C@H]32)C[C@@]2(CCCc3cc(Cl)ccc32)CO4)c1 [Example 100533, (1S,3′R,6′R,7′S,8′E,11′S,12′R)-6-chloro-7′-hydroxy-11′,12′-dimethyl-7′-((4-methyl-2-pyridinyl)methyl)-3,4-dihydro-2H,15′H-spiro[naphthalene-1,22′-[20]oxa[13]thia[1,14]diazatetracyclo [14.7.2.0~3,6~.0~19,24~]pentacosa[8,16,18,24]tetraen]-15′-one 13′,13′-dioxide] | 8.56 | 3990
Cc1cc(C[C@@]2(O)/C=C/C[C@H](C)[C@@H](C)S(=O)(=O)NC(=O)c3ccc4c(c3)N(C[C@@H]3CC[C@H]32)C[C@@]2(CCCc3cc(Cl)ccc32)CO4)no1 [Example 100540, (1S,3′R,6′R,7′R,8′E,11′S,12′R)-6-chloro-7′-hydroxy-11′,12′-dimethyl-7′-((5-methyl-1,2-oxazol-3-yl)methyl)-3,4-dihydro-2H,15′H-spiro[naphthalene-1,22′-[20]oxa[13]thia[1,14]diazatetracyclo [14.7.2.0~3,6~.0~19,24~]pentacosa[8,16,18,24]tetraen]-15′-one 13′,13′-dioxide] | 0.275 | 320
Cc1cc(C[C@]2(O)/C=C/C[C@H](C)[C@@H](C)S(=O)(=O)NC(=O)c3ccc4c(c3)N(C[C@@H]3CC[C@H]32)C[C@@]2(CCCc3cc(Cl)ccc32)CO4)no1 [Example 100541, (1S,3′R,6′R,7′S,8′E,11′S,12′R)-6-chloro-7′-hydroxy-11′,12′-dimethyl-7′-((5-methyl-1,2-oxazol-3-yl)methyl)-3,4-dihydro-2H,15′H-spiro[naphthalene-1,22′-[20]oxa[13]thia[1,14]diazatetracyclo [14.7.2.0~3,6~.0~19,24~]pentacosa[8,16,18,24]tetraen]-15′-one 13′,13′-dioxide] | 0.76 | 826
CO[C@@]1(Cc2ncccc2C)/C=C/C[C@H](C)[C@@H](C)S(=O)(=O)NC(=O)c2ccc3c(c2)N(C[C@@H]2CC[C@H]21)C[C@@]1(CCCc2cc(Cl)ccc21)CO3 [Example 100542, (1S,3′R,6′R,7′S,8′E,11′S,12′R)-6-chloro-7′-methoxy-11′,12′-dimethyl-7′-((3-methyl-2-pyridinyl)methyl)-3,4-dihydro-2H,15′H-spiro[naphthalene-1,22′-[20]oxa[13]thia[1,14]diazatetracyclo [14.7.2.0~3,6~.0~19,24~]pentacosa[8,16,18,24]tetraen]-15′-one 13′,13′-dioxide] | 0.229 | 902
CO[C@@]1(CC2=NC(C)(C)C(=O)O2)/C=C/C[C@H](C)[C@@H](C)S(=O)(=O)NC(=O)c2ccc3c(c2)N(C[C@@H]2CC[C@H]21)C[C@@]1(CCCc2cc(Cl)ccc21)CO3 [Example 100547, (1S,3′R,6′R,7′S,8′E,11′S,12′R)-6-chloro-7′-((4,4-dimethyl-5-oxo-4,5-dihydro-1,3-oxazol-2-yl)methyl)-7′-methoxy-11′,12′-dimethyl-3,4-dihydro-2H,15′H-spiro[naphthalene-1,22′-[20]oxa[13]thia[1,14]diazatetracyclo [14.7.2.0~3,6~.0~19,24~]pentacosa[8,16,18,24]tetraen]-15′-one 13′,13′-dioxide] | 0.031 | 1860
CO[C@]1(Cc2cc(C)on2)/C=C/C[C@H](C)[C@@H](C)S(=O)(=O)NC(=O)c2ccc3c(c2)N(C[C@@H]2CC[C@H]21)C[C@@]1(CCCc2cc(Cl)ccc21)CO3 [Example 100548, (1S,3′R,6′R,7′R,8′E,11′S,12′R)-6-chloro-7′-methoxy-11′,12′-dimethyl-7′-((5-methyl-1,2-oxazol-3-yl)methyl)-3,4-dihydro-2H,15′H-spiro[naphthalene-1,22′-[20]oxa[13]thia[1,14]diazatetracyclo [14.7.2.0~3,6~.0~19,24~]pentacosa[8,16,18,24]tetraen]-15′-one 13′,13′-dioxide] | 0.064 | 8410
CO[C@@]1(CC2=NCC(=O)O2)/C=C/C[C@H](C)[C@@H](C)S(=O)(=O)NC(=O)c2ccc3c(c2)N(C[C@@H]2CC[C@H]21)C[C@@]1(CCCc2cc(Cl)ccc21)CO3 [Example 100549, (1S,3′R,6′R,7′S,8′E,11′S,12′R)-6-chloro-7′-methoxy-11′,12′-dimethyl-7′-((5-oxo-4,5-dihydro-1,3-oxazol-2-yl)methyl)-3,4-dihydro-2H,15′H-spiro[naphthalene-1,22′-[20]oxa[13]thia[1,14]diazatetracyclo [14.7.2.0~3,6~.0~19,24~]pentacosa[8,16,18,24]tetraen]-15′-one 13′,13′-dioxide] | 2.57 | 545
CO[C@@]1(Cc2cc(C)on2)/C=C/C[C@H](C)[C@@H](C)S(=O)(=O)NC(=O)c2ccc3c(c2)N(C[C@@H]2CC[C@H]21)C[C@@]1(CCCc2cc(Cl)ccc21)CO3 [Example 100552, (1S,3′R,6′R,7′S,8′E,11′S,12′R)-6-chloro-7′-methoxy-11′,12′-dimethyl-7′-((5-methyl-1,2-oxazol-3-yl)methyl)-3,4-dihydro-2H,15′H-spiro[naphthalene-1,22′-[20]oxa[13]thia[1,14]diazatetracyclo [14.7.2.0~3,6~.0~19,24~]pentacosa[8,16,18,24]tetraen]-15′-one 13′,13′-dioxide] | 0.065 | 957
CO[C@@]1(c2cncc(CN(C)C)c2)/C=C/C[C@H](C)[C@@H](C)S(=O)(=O)NC(=O)c2ccc3c(c2)N(C[C@@H]2CC[C@H]21)C[C@@]1(CCCc2cc(Cl)ccc21)CO3 [Example 100554, (1S,3′R,6′R,7′S,8′E,11′S,12′R)-6-chloro-7′-(5-((dimethylamino)methyl)-3-pyridinyl)-7′-methoxy-11′,12′-dimethyl-3,4-dihydro-2H,15′H-spiro[naphthalene-1,22′-[20]oxa[13]thia[1,14]diazatetracyclo [14.7.2.0~3,6~.0~19,24~]pentacosa[8,16,18,24]tetraen]-15′-one 13′,13′-dioxide] | 0.231 | 519
